For one compound, bioavailability results are on record in patent publication US20030118653A1, “Quick dissolving oral mucosal drug delivery device with moisture barrier coating” (Lavipharm Laboratories Inc., priority 2001, published 2003).

The structures appear in SMILES notation.

This series in a line: Bioavailability of sildenafil from film with water soluble inert filler. The class given is in vivo. The following applies: incorporated in a film with water soluble inert filler xylitol. From the text: A further parameter affecting the uptake of an active agent or combination of active agents from the quick dissolving oral mucosal drug delivery devices of the present invention is the manner in which the active agent or combination of active agents is dispersed in the delivery device. For example, the active agent or combination of active agents may be dispersed as colloidal particles or be microencapsulated within the delivery device or alternatively may be mixed throughout the delivery device as a reagent during casting. In another example, the active agent can form a solid dispersion with a water soluble inert filler for purposes of increasing the solubility of the active agent when released from the inner layer thereby enhancing bioavailability of the active agent. […] In another example, a bitter active agent can form saliva insoluble complex with water insoluble polymers for the purpose of taste masking.

`CCCc1nn(C)c2c(=O)[nH]c(-c3cc(S(=O)(=O)N4CCN(C)CC4)ccc3OCC)nc12` [sildenafil]: the bioavailability entry is “enhance the bioavailability”.
